The text below walks through data of patent publication US20150315211A1, “SMALL MOLECULES FOR THE MODULATION OF MCL-1 AND METHODS OF MODULATING CELL DEATH, CELL DIVISION, CELL DIFFERENTIATION AND METHODS OF TREATING DISORDERS” (priority 2010, published 2015).

Test [1] deals with MCL-1ΔNΔC. The test can be described thus: High-throughput competitive FP binding screen, FITC-MCL-1 SAHB/MCL-1ΔNΔC interaction. The note with it: selectivity for MCL-1ΔNΔC over BCL-XLΔC targeting (BCL-XL % Bound minus MCL-1 % Bound).
The target in another test is BCL-XLΔC (Homo sapiens, UniProt Q07817). Description: High-throughput competitive FP binding screen, FITC-BAD BH3/BCL-XLΔC interaction. Particulars: FITC-BAD BH3/BCL-XLΔC interaction pair, competitive FP screen.
Test [2] deals with MCL-1ΔNΔC (Homo sapiens, UniProt Q07820). Description: High-throughput competitive FP binding screen, FITC-MCL-1 SAHB/MCL-1ΔNΔC interaction. Particulars: FITC-MCL-1 SAHB/MCL-1ΔNΔC interaction pair, competitive FP screen. Further details: the C-terminal alpha-helix was deleted from each of these constructs; GST (N, cleaved yes); made in house.
Chain of MCL-1ΔNΔC (Homo sapiens, UniProt Q07820) (Q07820 172-320 limits assumed, stated change not applied): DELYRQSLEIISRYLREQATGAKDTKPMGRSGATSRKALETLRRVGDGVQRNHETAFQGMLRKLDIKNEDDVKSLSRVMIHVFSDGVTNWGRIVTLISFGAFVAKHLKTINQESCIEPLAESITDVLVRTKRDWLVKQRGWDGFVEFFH

Chain of BCL-XLΔC (Q07817 1-212 limits assumed, stated change not applied): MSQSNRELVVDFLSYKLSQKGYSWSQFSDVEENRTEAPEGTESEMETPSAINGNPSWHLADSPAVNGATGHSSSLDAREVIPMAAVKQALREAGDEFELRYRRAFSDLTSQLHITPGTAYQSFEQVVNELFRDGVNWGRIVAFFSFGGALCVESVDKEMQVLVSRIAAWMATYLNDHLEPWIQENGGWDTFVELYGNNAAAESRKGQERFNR

On to `Cc1conc1NC(c1cccs1)c1ccc2cccnc2c1O` (stereo not drawn), for which, in the test with MCL-1ΔNΔC [1], the “Spec Values” amounted to 45.42. Besides, at BCL-XLΔC, the “BCL-XL % Bound” value is 103.8%. Moreover, at MCL-1ΔNΔC [2], the “MCL-1% Bound” value is on record as 58.33%.
For `O=C1C=CC(=O)C(CCCCCCC2=CC(=O)C=CC2=O)=C1`, in that order: 59.34, 106.5% and 47.19%.
For `Cc1ccc2c(CC(=O)NCC(=O)OCc3ccccc3)coc2c1`, in that order: 59.09, 95.64% and 36.55%.
The like results for `Cc1ccc(C(c2c(O)ccc3ccccc23)N2CCOCC2)o1` (stereo not drawn) were, in that order, 59.04, 100.8% and 41.79%.
As for `O=c1[nH]cnc2ccc(Br)cc12`, the “Spec Values” in the test on MCL-1ΔNΔC [1] worked out at 59.02. In addition, on BCL-XLΔC, the “BCL-XL % Bound” value is listed as 93.69%. Also, at MCL-1ΔNΔC [2], the “MCL-1% Bound” value was found to be 34.67%.
On to `Cc1ccc(/C=C2\C(=O)Nc3ccc(Br)cc32)o1`, for which the “Spec Values” with MCL-1ΔNΔC [1] was 58.85. Also, the “BCL-XL % Bound” value at BCL-XLΔC worked out at 77.59%. Besides, on MCL-1ΔNΔC [2], the “MCL-1% Bound” value was determined as 18.74%.
Take `COc1cc(C2Nc3cccc4cccc(c34)N2)cc(I)c1O`: in the test on MCL-1ΔNΔC [1], the “Spec Values” is on record as 58.66. Besides, the “BCL-XL % Bound” value on BCL-XLΔC was 81.48%. In addition, the “MCL-1% Bound” value on MCL-1ΔNΔC [2] is listed as 22.81%.
With `Cc1ccccc1-c1nnc(SCC(=O)NC(=O)Nc2ccccc2F)n1C`, in the test on MCL-1ΔNΔC [1], the “Spec Values” was 58.58. The “BCL-XL % Bound” value on BCL-XLΔC came to 98.1%. The “MCL-1% Bound” value on MCL-1ΔNΔC [2] came to 39.52%.
The like results for `O=C1COc2ccc(-c3cs/c(=N\c4ccc(F)cc4)n3/N=C/c3ccc(O)c(O)c3)cc2N1` were, in that order, 58.52, 97.64% and 39.12%.
For `O=C1C2=C(C(=O)c3ccccc31)C(c1ccccc1O)c1sc(=O)[nH]c1S2` (stereo not drawn), in that order: 58.45, 88.86% and 30.41%.
The like results for `CN1CCCN(Cc2cc(C(C)(C)C)c(O)c(C(C)(C)C)c2)CC1` were, in that order, 58.29, 83.5% and 25.21%.
With `O=C(CC1C(=O)c2ccccc2S1(=O)=O)NC1=NN(c2ccccc2)C(=O)C1` (stereo not drawn), the “Spec Values” in the test with MCL-1ΔNΔC [1] is 57.74. In addition, at BCL-XLΔC, the “BCL-XL % Bound” value is on record as 65.35%. Moreover, the “MCL-1% Bound” value at MCL-1ΔNΔC [2] is 7.61%.
With `c1coc(C2Nc3cccc4cccc(c34)N2)c1`, in the test with MCL-1ΔNΔC [1], the “Spec Values” was determined as 57.32. Further, the “BCL-XL % Bound” value at BCL-XLΔC was determined as 106.3%. For the same compound, the “MCL-1% Bound” value on MCL-1ΔNΔC [2] was 48.94%.
Take `CC(C)Cn1c2ccc(Cl)cc2c2nc3ccccc3nc21`: the “Spec Values” in the test on MCL-1ΔNΔC [1] was determined as 57.12. Further, the “BCL-XL % Bound” value at BCL-XLΔC is reported as 89.44%. At MCL-1ΔNΔC [2], the “MCL-1% Bound” value was 32.32%.
As for `c1cc(CNc2ccc(N3CCCC3)cc2)ccn1`, the “Spec Values” in the test with MCL-1ΔNΔC [1] is 56.89. The “BCL-XL % Bound” value at BCL-XLΔC was found to be 95.63%. Moreover, the “MCL-1% Bound” value at MCL-1ΔNΔC [2] amounted to 38.73%.
The like results for `COc1ccc(C2=CC(=O)C=CC2=O)cc1` were, in that order, 56.64, 92.03% and 35.4%.
For `Oc1ccc(NCc2ccc(Br)cc2)cc1`, in that order: 56.32, 90.95% and 34.63%.
For `CCN(CC)S(=O)(=O)c1ccc(-c2ccc(/C=N/N=C3\NC(=O)C(CC(=O)Nc4ccccc4)S3)o2)cc1` (stereo not drawn), in that order: 56.3, 100.7% and 44.37%.
Consider `O=C1CSCC(=O)N1c1cc(C(F)(F)F)cc(C(F)(F)F)c1`, for which, in the test on MCL-1ΔNΔC [1], the “Spec Values” amounted to 56.05. Moreover, the “BCL-XL % Bound” value on BCL-XLΔC came out at 101.7%. Also, the “MCL-1% Bound” value at MCL-1ΔNΔC [2] turned out to be 45.62%.
As to `O=C1C=CC(=O)N1CCc1ccc(Cl)cc1`, the “Spec Values” in the test with MCL-1ΔNΔC [1] stood at 55.93. Moreover, the “BCL-XL % Bound” value at BCL-XLΔC was 97.07%. In addition, on MCL-1ΔNΔC [2], the “MCL-1% Bound” value is given as 41.14%.
The like results for `N#C/C(=C\C=C\c1ccco1)C(N)=S` were, in that order, 55.72, 63.54% and 7.822%.
For `O=C1C=CC(=O)C(Sc2nnnn2-c2ccccc2)=C1`, in that order: 55.69, 101.3% and 45.56%.
Consider `Cc1ccc2n1CCn1cc(-c3ccc(Br)cc3)cc1-2`, for which the “Spec Values” in the test with MCL-1ΔNΔC [1] was 55.6. Moreover, at BCL-XLΔC, the “BCL-XL % Bound” value came out at 99.37%. Further, the “MCL-1% Bound” value at MCL-1ΔNΔC [2] was 43.77%.
The like results for `O=C(CSc1ncc(C(F)(F)F)cc1Cl)NC(=O)CN1CCCC1=O` were, in that order, 55.6, 98.97% and 43.37%.
`N#CC(C#N)=C(C#N)c1ccc(-c2ccccc2)[nH]1`: the “Spec Values” with MCL-1ΔNΔC [1] is 55.59. Besides, on BCL-XLΔC, the “BCL-XL % Bound” value is on record as 90.7%. Also, on MCL-1ΔNΔC [2], the “MCL-1% Bound” value was 35.11%.
The like results for `c1ccc2c(c1)nc(Nc1ccc(N3CCCCC3)cc1)c1nncn12` were, in that order, 55.41, 90.45% and 35.03%.
Regarding `C/C(=N\OCc1ccc(C(=O)N2CCCCC2)o1)c1cccc(C(F)(F)F)c1`, the “Spec Values” in the test with MCL-1ΔNΔC [1] came to 55.34. Further, the “BCL-XL % Bound” value on BCL-XLΔC is 110.8%. Further, on MCL-1ΔNΔC [2], the “MCL-1% Bound” value stood at 55.48%.
Regarding `CCOc1ccc2c(c1)C(C)=CC(C)(C)N2C(=O)CSc1nnc(C2CC2)n1C`, in the test on MCL-1ΔNΔC [1], the “Spec Values” worked out at 55.24. In addition, the “BCL-XL % Bound” value on BCL-XLΔC is 95.37%. The “MCL-1% Bound” value on MCL-1ΔNΔC [2] stood at 40.13%.
Turning to `CCc1ccc2c(c1)C1(NN=C(c3ccccc3)S1)C(=O)N2` (stereo not drawn), the “Spec Values” in the test on MCL-1ΔNΔC [1] was determined as 55.23. Besides, on BCL-XLΔC, the “BCL-XL % Bound” value is recorded as 99.43%. Also, the “MCL-1% Bound” value on MCL-1ΔNΔC [2] turned out to be 44.19%.
The like results for `Cc1cccc(NC(=O)CSc2nncc(=O)[nH]2)c1` were, in that order, 55, 82.27% and 27.28%.
In the case of `Cc1ccc(C)n1Cc1ccc(C(=O)O)cc1`, the “Spec Values” with MCL-1ΔNΔC [1] is on record as 54.85. Further, at BCL-XLΔC, the “BCL-XL % Bound” value is reported as 91.45%. The “MCL-1% Bound” value at MCL-1ΔNΔC [2] stood at 36.6%.
The like results for `CC(C)CNC(=O)CCc1nc(-c2ccccc2)no1` were, in that order, 54.73, 92.21% and 37.48%.
Take `Fc1ccccc1OCCSc1nnc2c(n1)[nH]c1ccccc12`: the “Spec Values” with MCL-1ΔNΔC [1] is listed as 54.35. In addition, at BCL-XLΔC, the “BCL-XL % Bound” value worked out at 99.56%. For the same compound, the “MCL-1% Bound” value on MCL-1ΔNΔC [2] is 45.2%.
For `N#Cc1cc2c([nH]c1=S)CCC2`, in that order: 54.04, 86.64% and 32.6%.
`O=C(O)C1CCCN(c2nn3cc(-c4ccc(F)cc4)nc3s2)C1` (stereo not drawn): the “Spec Values” in the test on MCL-1ΔNΔC [1] worked out at 53.98. Also, the “BCL-XL % Bound” value on BCL-XLΔC turned out to be 82.02%. The “MCL-1% Bound” value on MCL-1ΔNΔC [2] is 28.04%.
The like results for `CN(C)c1ccc2cccc(O)c2n1` were, in that order, 53.86, 95.09% and 41.22%.
For `CCOc1cccc(/C=N/n2c(S)nnc2-c2ccc(Cl)cc2)c1O`, in that order: 53.75, 96.58% and 42.83%.
For `CCCCCOc1ccc(C(=O)/C=C/C(=O)O)cc1`, in that order: 53.61, 97.46% and 43.85%.
For `Cc1nc2sccn2c1-c1nc(-c2ccc(Br)o2)c(C(=O)c2ccc3c(c2)OCCO3)s1`, in the test with MCL-1ΔNΔC [1], the “Spec Values” was found to be 53.55. In addition, the “BCL-XL % Bound” value on BCL-XLΔC was 93.3%. Also, the “MCL-1% Bound” value on MCL-1ΔNΔC [2] came out at 39.75%.
In the case of `CC1CCC[SH](c2cc(O)ccc2O)C1` (stereo not drawn), the “Spec Values” with MCL-1ΔNΔC [1] is recorded as 53.57. Besides, the “BCL-XL % Bound” value on BCL-XLΔC is listed as 94.72%. Further, the “MCL-1% Bound” value at MCL-1ΔNΔC [2] amounted to 41.16%.
Consider `O=c1c(O)cccc2cc(O)c(O)c(O)c12`, for which the “Spec Values” in the test with MCL-1ΔNΔC [1] worked out at 53.55. In addition, the “BCL-XL % Bound” value on BCL-XLΔC was 33.74%. Moreover, the “MCL-1% Bound” value at MCL-1ΔNΔC [2] is −19.81%.
On to `CC(/N=C/c1cccc(O)c1O)c1ccccc1` (stereo not drawn), for which, in the test on MCL-1ΔNΔC [1], the “Spec Values” came out at 53.29. Moreover, the “BCL-XL % Bound” value on BCL-XLΔC was 93.71%. Besides, the “MCL-1% Bound” value on MCL-1ΔNΔC [2] is reported as 40.42%.
For `N#CSC(C#N)Cc1ccccc1` (stereo not drawn), in that order: 53.23, 103.6% and 50.39%.
For `O=C(CSc1nnc(-c2ccoc2)c(-c2ccoc2)n1)c1ccc(-c2ccccc2)cc1`, in that order: 53.14, 98.52% and 45.38%.
On to `Oc1ccc(CNc2ccccc2O)cc1`, for which the “Spec Values” in the test with MCL-1ΔNΔC [1] was 53.12. The “BCL-XL % Bound” value on BCL-XLΔC is 89.38%. Further, the “MCL-1% Bound” value on MCL-1ΔNΔC [2] was found to be 36.26%.
For `CCCOc1nc2c(c(-c3ccco3)c1C#N)CCCC2`, in that order: 52.96, 83.67% and 30.71%.
The like results for `NC1=C(c2nc3ccccc3s2)CC(=O)N1CCc1ccccc1` were, in that order, 52.91, 108.5% and 55.57%.
With `C/C(=N\NC(=S)Nc1ccccc1C)c1ccc(O)cc1`, the “Spec Values” in the test with MCL-1ΔNΔC [1] worked out at 52.6. Besides, at BCL-XLΔC, the “BCL-XL % Bound” value worked out at 103.4%. For the same compound, at MCL-1ΔNΔC [2], the “MCL-1% Bound” value came to 50.82%.
In the case of `C=CCSc1nnc(-c2ccc(C(C)(C)C)cc2)n1Cc1ccco1`, the “Spec Values” with MCL-1ΔNΔC [1] was determined as 52.3. The “BCL-XL % Bound” value on BCL-XLΔC stood at 122.3%. The “MCL-1% Bound” value on MCL-1ΔNΔC [2] stood at 69.99%.
For `COC(=O)c1c(NC(=S)Nn2cnnc2)sc2c1CCC(C)C2` (stereo not drawn), the “Spec Values” in the test on MCL-1ΔNΔC [1] is 52.28. In addition, the “BCL-XL % Bound” value on BCL-XLΔC worked out at 77.55%. In addition, the “MCL-1% Bound” value at MCL-1ΔNΔC [2] is reported as 25.26%.
